Read-outs that look alike come from different tables or passages of the source.
Legend:
[1] = system: CH1; assay: Inhibition of cell proliferation, human cancer cell lines in culture (CH1); type: cell-based
[2] = system: A2780R; assay: Inhibition of cell proliferation, human cancer cell lines in culture (A2780R); type: cell-based
Procedure: (§1) The complexes of the invention were tested against human cancer cell lines grown in cell culture according to established testing procedures (described by Kelland et al, Cancer Research 53, 2581-2586, June 1993). […] The results are given in concentrations (μM) necessary to achieve a 50% decrease in cell proliferation, with resistance factors in brackets for the cisplatin-resistant cell lines.

[3] = system: SKOV3; assay: Inhibition of cell proliferation, human cancer cell lines in culture (SKOV3); type: cell-based
Procedure: as §1

[4] = system: CH1R; assay: Inhibition of cell proliferation, human cancer cell lines in culture (CH1R); type: cell-based
Procedure: as §1

[5] = system: A2780; assay: Inhibition of cell proliferation, human cancer cell lines in culture (A2780); type: cell-based
[6] = system: HX62; assay: Inhibition of cell proliferation, human cancer cell lines in culture (HX62); type: cell-based
Procedure: as §1

[7] = system: 41MR; assay: Inhibition of cell proliferation, human cancer cell lines in culture (41MR); type: cell-based
Procedure: as §1

[8] = system: 41M; assay: Inhibition of cell proliferation, human cancer cell lines in culture (41M); type: cell-based; details: read-out: concentration necessary to achieve a 50% decrease in cell proliferation
[9] = system: CH1 xenograft; assay: CH1 xenograft antitumour activity; type: in vivo; details: for antitumour effect and tumour regrowth in the CH1 xenograft: derived from cell line sensitive to cisplatin
Text: It has been reported by Tobe et al (Wadley Medical Bulletin 7, 1, 114-135) that steric effects of bulky substituents close to the platinum atom have a profound effect upon the rate of substitution reactions there. At that time no systematic study of the way in which variation of the substituent on the primary amine affects the rate and extend of bonding of the Pt complex to DNA had been undertaken.

[10] = system: ADJ/PC6; assay: ADJ/PC6 tumour mass reduction in Balb C mice; type: in vivo
[11] = mouse, in vivo, po
[12] = Homo sapiens; read-out: concentration necessary to achieve a 50% decrease in cell proliferation
[13] = SKOV3 IC50 divided by the IC50 for the 41M line
[14] = HX62 IC50 divided by the IC50 for the 41M line
[15] = CH1; read-out: concentration necessary to achieve a 50% decrease in cell proliferation
[16] = A2780R, bred to be resistant to cisplatin; read-out: concentration necessary to achieve a 50% decrease in cell proliferation
[17] = SKOV3, inherently resistant to cisplatin; read-out: concentration necessary to achieve a 50% decrease in cell proliferation
[18] = CH1R, bred to be resistant to cisplatin; read-out: concentration necessary to achieve a 50% decrease in cell proliferation
[19] = A2780; read-out: concentration necessary to achieve a 50% decrease in cell proliferation
[20] = HX62, inherently resistant to cisplatin; read-out: concentration necessary to achieve a 50% decrease in cell proliferation
[21] = 41MR, bred to be resistant to cisplatin; read-out: concentration necessary to achieve a 50% decrease in cell proliferation
[22] = inherently cisplatin sensitive line
[23] = Homo sapiens, read-out: concentration necessary to achieve a 50% decrease in cell proliferation

Row | Compound | resistance factor ([2]; A2780R versus A2780) | resistance factor [3, 13] | resistance factor ([4]; CH1R versus CH1) | resistance factor [6, 14] | resistance factor ([7]; 41MR versus 41M) | IC50 [1, 15] | IC50 [2, 16] | IC50 [3, 17] | IC50 [4, 18] | IC50 [5, 19] | IC50 [6, 20] | IC50 [7, 21] | IC50 [8, 22] | also measured
1 | CCc1ccccn1 [Example 2, 2-ethylpyridine] | (2.5) | (2.9) | (2.6) | (10) | (1.7) |  |  |  |  |  |  |  |  | IC50 ([1]; Homo sapiens, CH1; read-out: concentration necessary to achieve a 50% decrease in cell proliferation): 1.4 µM; IC50 [2, 12]: 11 µM; IC50 ([3]; Homo sapiens, SK-OV-3; read-out: concentration necessary to achieve a 50% decrease in cell proliferation): 20 µM; IC50 [4, 12]: 3.6 µM; IC50 ([5]; Homo sapiens, A2780; read-out: concentration necessary to achieve a 50% decrease in cell proliferation): 4.4 µM; IC50 ([6]; Homo sapiens, HX62; read-out: concentration necessary to achieve a 50% decrease in cell proliferation): 36 µM; IC50 [7, 12]: 5.7 µM; IC50 ([8]; Homo sapiens): 3.4 µM
2 | N.N.O=C([O-])C1(C(=O)[O-])CCC1.[Pt+2] [Carboplatin, reference compound] | (14) | (11) | (4.6) | (26) | (2.7) | 1.3 µM | 37.4 µM | 37.7 µM | 6 µM | 2.6 µM | 85 µM | 8.8 µM | 3.3 µM | 
3 | N.N.[Cl][Pt][Cl] [Cisplatin, [PtCl2 (NH3)2], reference compound] | (22) | (10.5) | (3.7) | (37.8) | (4.6) | 0.12 µM | 7.8 µM | 4.3 µM | 0.44 µM | 0.35 µM | 15.5 µM | 1.9 µM | 0.41 µM | antitumour effect and tumour regrowth in the CH1 xenograft [9]: significant activity at the maximum tolerated dose, however the tumour does grow back; ED90; dose required to reduce tumour mass by 90% ([10]; ADJ/PC6, Daily × 5 (i.p.)): 0.2 mg/kg; ED90; dose required to reduce tumour mass by 90% ([10]; ADJ/PC6, Single dose (i.p.)): 1.6 mg/kg; ED90; dose required to reduce tumour mass by 90% ([10]; ADJ/PC6, Single dose (p.o.)): 24 mg/kg
4 | Cc1ccnc(C)c1.N.[Cl][Pt][Cl] [Example 4, (SP-4-3)-amminedichloro(2,4-dimethylpyridine)platinum(II)] |  | (3) | (2.3) | (1) | (0.4) | 2.3 µM | 18 µM | 14 µM | 5.3 µM | 6.6 µM | 4.9 µM | 1.9 µM | 4.25 µM | 
5 | Cc1cc[n+]([Pt-2]([NH3+])([OH])([OH])([Cl])[Cl])c(C)c1 [Example 7, (OC-6-43)-amminedichlorodihydroxo(2,4-dimethylpyridine)platinum(IV)] | (2.1) | (5.9) | (2.5) | (9) | (2.2) | 3.1 µM | 30 µM | 47 µM | 8.9 µM | 14 µM | 72 µM | 17.5 µM | 8 µM | 
6 | CC(C)c1ccccn1 [Example 5, 2-isopropylpyridine] | (3.6) | (3.3) | (1.7) | (8) | (0.9) |  |  |  |  |  |  |  |  | IC50 ([1]; Homo sapiens, CH1, read-out: concentration necessary to achieve a 50% decrease in cell proliferation): 2.4 µM; IC50 [2, 23]: 14 µM; IC50 ([3]; Homo sapiens, SK-OV-3, read-out: concentration necessary to achieve a 50% decrease in cell proliferation): 20 µM; IC50 [4, 23]: 4.2 µM; IC50 ([5]; Homo sapiens, A2780, read-out: concentration necessary to achieve a 50% decrease in cell proliferation): 3.9 µM; IC50 ([6]; Homo sapiens, HX62, read-out: concentration necessary to achieve a 50% decrease in cell proliferation): 49 µM; IC50 [7, 23]: 5.6 µM; IC50 ([8]; Homo sapiens): 6.1 µM
7 | Cc1cccc[n+]1[Pt-2]([NH3+])([Cl])[Cl] [Example 1, (SP-4-3)-amminedichloro(2-methylpyridine) platinum(II)] | (3.4) | (4.3) | (1.9) | (9.8) | (1.2) | 1.9 µM | 4.4 µM | 17.5 µM | 3.7 µM | 1.28 µM | 40 µM | 5 µM | 4.1 µM | histological evidence of organ toxicity (mice receiving a LD10 dose): No significant histological evidence of liver, kidney, spleen, gastrointestinal tract, brain or skin toxicity; levels of ALP, ALT, gut disaccharides maltose, sucrose and trehalose, urea and creatinine compared to control mice (treated mice (LD50 dose)): no significant differences; LD50; dose causing 50% lethality [11]: 560 mg/kg; antitumour effect and tumour regrowth in the CH1 xenograft [9]: exhibits a curative effect, and the tumour does not grow back; potency in the CH1 xenograft compared with cisplatin ([9]; greater dose is required than cisplatin): slightly less potency; ED90; dose required to reduce tumour mass by 90% ([10]; ADJ/PC6, Daily × 5 (i.p.)): 0.8 mg/kg; ED90; dose required to reduce tumour mass by 90% ([10]; ADJ/PC6, Single dose (i.p.)): 3 mg/kg; ED90; dose required to reduce tumour mass by 90% ([10]; ADJ/PC6, Single dose (p.o.)): 6.2 mg/kg

From patent USRE41209E1, “Platinum complexes” (Genzyme Corporation, priority 1996, dated 2010)
